The test system of this assay is Jurkat HIV-luciferase clones. Put plainly: Jurkat latency reversal assay. Conditions: Homo sapiens, Jurkat, 48 h. Type of assay: cell-based. On the procedure:
Jurkat HIV-luciferase clones were maintained in RPMI medium 1640 (Gibco by Life Technologies) containing 10% (vol/vol) fetal bovine serum (SAFC/Sigma-Aldrich) and 25 units/mL penicillin, 25 units/mL streptomycin (Gibco by Life Technologies), and were split 1:4 every 3 to 4 days to maintain a cell density of ˜0.3 to 1 million cells/mL. The Jurkat clones were maintained with the addition of 500 nM EFV in the medium. Three Jurkat cell clones (C16, I15, and N6), each harboring one or two integrated HIV proviruses expressing the luciferase reporter gene, were added at equal amounts for a total of 5,000 cells per well to 384-well plates containing compound titrations. Dose-response testing was performed on compounds dissolved in dimethyl sulfoxide (DMSO, Fisher Scientific, Merelbeke, Belgium) dispensed in duplicate serial 3-fold, 14-point titrations using a D300e Digital Droplet Dispenser (Hewlett-Packard) to give final assay concentrations of 10 μM to 2.1 pM in 50 μL of medium at 0.5% DMSO (vol/vol) final concentration. Cells and compound were incubated at 37° C. for 48 hours, unless otherwise indicated, followed by the addition of 20 μL of Steady-Glo® Luciferase (Promega). Luminescence resulting from the induction of the virally expressed luciferase was measured using an EnVision 2102 Multilabel Plate Reader (Perkin Elmer). Dose-response relationships were analyzed with GraphPad PRISM 6 using a four-parameter logistic regression model to calculate the concentration of compound that gives half-maximal response (EC50) and the maximal percent activation compared to the vehicle control.

What is called EC50 is the concentration needed to bring the measured effect to its halfway point.

Where a name gives a salt, the structure may show the parent alone.

Regarding `CN[C@@H](C)C(=O)N[C@H]1CCS[C@H]2CC(C)(C)[C@@H](C(=O)N[C@H](C(=O)N3CCN(C(=O)[C@@H](NC(=O)[C@H]4N5C(=O)[C@@H](NC(=O)[C@H](C)NC)CCS[C@H]5CC4(C)C)c4ccccc4)CC3)c3ccccc3)N2C1=O` [compound 26, (4S,4′S,7S,7′S,9aS,9a′S)-N,N′-((1S,1′S)-piperazine-1,4-diylbis(2-oxo-1-phenylethane-2,1-diyl))bis(8,8-dimethyl-4-((S)-2-(methylamino)propanamido)-5-oxooctahydropyrrolo[2,1-b][1,3]thiazepine-7-carboxamide) dihydrochloride], the EC50 is 69.1 nM.

In the case of `CN[C@@H](C)C(=S)NC1CCS[C@H]2CC(C)(C)[C@@H](C(=O)N[C@H]3c4ccccc4CC[C@H]3C(=O)NCc3ccc(CNC(=O)[C@@H]4CCc5ccccc5C4NC(=O)[C@H]4N5C(=O)[C@@H](NC(=S)[C@H](C)NC)CCS[C@H]5CC4(C)C)cc3)N2C1=O` (stereo in doubt) [compound 10, (4S,4′S,7S,7′S,9aS,9a′S)-N,N′-((1R,1′R,2R,2′R)-(((1,4-phenylenebis(methylene))bis(azanediyl))bis(carbonyl))bis(1,2,3,4-tetrahydronaphthalene-2,1-diyl))bis(8,8-dimethyl-4-((S)-2-(methylamino)propanethioamido)-5-oxooctahydropyrrolo[2,1-b][1,3]thiazepine-7-carboxamide)], the EC50 came out at 43.4 nM.

In the case of `CN[C@@H](C)C(=O)N[C@H]1CCS[C@H]2CC(C)(C)[C@@H](C(=O)N[C@H]3c4ccccc4C[C@H]3OCCOCCO[C@@H]3Cc4ccccc4[C@@H]3NC(=O)[C@H]3N4C(=O)[C@@H](NC(=O)[C@H](C)NC)CCS[C@H]4CC3(C)C)N2C1=O` [compound 18, (4S,4′S,7S,7′S,9aS,9a′S)-N,N′-((1S,1′S,2R,2′R)-((oxybis(ethane-2,1-diyl))bis(oxy))bis(2,3-dihydro-1H-indene-2,1-diyl))bis(8,8-dimethyl-4-((S)-2-(methylamino)propanamido)-5-oxooctahydropyrrolo[2,1-b][1,3]thiazepine-7-carboxamide) dihydrochloride], the concentration for a half-maximal effect (EC50) was found to be 22.3 nM.

For the molecule `CN[C@@H](C)C(=O)N[C@H]1CCS[C@H]2CC(C)(C)[C@@H](C(=O)N[C@H]3c4ccccc4C[C@H]3C(=O)NCc3ccc(CNC(=O)[C@@H]4Cc5ccccc5[C@@H]4NC(=O)[C@H]4N5C(=O)[C@@H](NC(=O)[C@H](C)NC)CCS[C@H]5CC4(C)C)cc3)N2C1=O` [compound 45, (4S,7S,9aS)-N-[(1R,2R)-2-({[4-({[(1R,2R)-1-[(4S,7S,9aS)-8,8-dimethyl-4-[(2S)-2-(methylamino)propanamido]-5-oxo-octahydropyrrolo[2,1-b][1,3]thiazepine-7-amido]-2,3-dihydro-1H-inden-2-yl]formamido}methyl)phenyl]methyl}carbamoyl)-2,3-dihydro-1H-inden-1-yl]-8,8-dimethyl-4-[(2S)-2-(methylamino)propanamido]-5-oxo-octahydropyrrolo[2,1-b][1,3]thiazepine-7-carboxamide], the EC50 is 183 nM.

Turning to `CN[C@@H](C)C(=O)N[C@H]1CCS[C@H]2CC(C)(C)[C@@H](C(=O)N[C@H](C(=O)NCC#CC#CCNC(=O)[C@@H](NC(=O)[C@H]3N4C(=O)[C@@H](NC(=S)[C@H](C)NC)CCS[C@H]4CC3(C)C)c3ccccc3)c3ccccc3)N2C1=O` [compound 31, (4S,7S,9aS)-N-((S)-2-((6-((S)-2-((4S,7S,9aS)-8,8-dimethyl-4-((S)-2-(methylamino)propanamido)-5-oxooctahydropyrrolo[2,1-b][1,3]thiazepine-7-carboxamido)-2-phenylacetamido)hexa-2,4-diyn-1-yl)amino)-2-oxo-1-phenylethyl)-8,8-dimethyl-4-((S)-2-(methylamino)propanethioamido)-5-oxooctahydropyrrolo[2,1-b][1,3]thiazepine-7-carboxamide dihydrochloride], the EC50 amounted to 25.8 nM.

On to `CN[C@@H](C)C(=S)N[C@H]1CCS[C@H]2CC(C)(C)[C@@H](C(=O)N[C@H](COCCCCCCOC[C@@H](NC(=O)[C@H]3N4C(=O)[C@@H](NC(=S)[C@H](C)NC)CCS[C@H]4CC3(C)C)c3ccccc3)c3ccccc3)N2C1=O` [compound 41, (4S,4′S,7S,7′S,9aS,9a′S)-N,N′-((1S,1′S)-(hexane-1,6-diylbis(oxy))bis(1-phenylethane-2,1-diyl))bis(8,8-dimethyl-4-((S)-2-(methylamino)propanethioamido)-5-oxooctahydropyrrolo[2,1-b][1,3]thiazepine-7-carboxamide) dihydrochloride], for which the concentration for a half-maximal effect (EC50) turned out to be 51.6 nM.

Take `CN[C@@H](C)C(=O)N[C@H]1CCS[C@H]2CC(C)(C)[C@@H](C(=O)N[C@H]3c4ccccc4C[C@H]3OCCCCCCCCO[C@@H]3Cc4ccccc4[C@@H]3NC(=O)[C@H]3N4C(=O)[C@@H](NC(=O)[C@H](C)NC)CCS[C@H]4CC3(C)C)N2C1=O` [compound 63, (4S,4′S,7S,7′S,9aS,9a′S)-N,N′-((1S,1′S,2R,2′R)-(octane-1,8-diylbis(oxy))bis(2,3-dihydro-1H-indene-2,1-diyl))bis(8,8-dimethyl-4-((S)-2-(methylamino)propanamido)-5-oxooctahydropyrrolo[2,1-b][1,3]thiazepine-7-carboxamide) dihydrochloride]: the EC50 was 11.6 nM.

As to `CN[C@@H](C)C(=S)N[C@H]1CCS[C@H]2CC(C)(C)[C@@H](C(=O)N[C@H](C(=O)NCc3ccc(CNC(=O)[C@@H](NC(=O)[C@H]4N5C(=O)[C@@H](NC(=S)[C@H](C)NC)CCS[C@H]5CC4(C)C)c4ccccc4)cc3)c3ccccc3)N2C1=O` [compound 25, (4S,4′S,7S,7′S,9aS,9a′S)-N,N′-((1S,1′S)-((1,4-phenylenebis(methylene))bis(azanediyl))bis(2-oxo-1-phenylethane-2,1-diyl))bis(8,8-dimethyl-4-((S)-2-(methylamino)propanethioamido)-5-oxooctahydropyrrolo[2,1-b][1,3]thiazepine-7-carboxamide) dihydrochloride], the EC50 was determined as 61.8 nM.

`CN[C@@H](C)C(=S)N[C@H]1CCS[C@H]2CC(C)(C)[C@@H](C(=O)N[C@H](COCC#CC#CCOC[C@@H](NC(=O)[C@H]3N4C(=O)[C@@H](NC(=S)[C@H](C)NC)CCS[C@H]4CC3(C)C)c3ccccc3)c3ccccc3)N2C1=O` [compound 35, (4S,4′S,7S,7′S,9aS,9a′S)-N,N′-((1S,1′S)-(hexa-2,4-diyne-1,6-diylbis(oxy))bis(1-phenylethane-2,1-diyl))bis(8,8-dimethyl-4-((S)-2-(methylamino)propanethioamido)-5-oxooctahydropyrrolo[2,1-b][1,3]thiazepine-7-carboxamide)]: the EC50 came to 9 nM.

For `CN[C@@H](C)C(=S)N[C@H]1CCS[C@H]2CC(C)(C)[C@@H](C(=O)N[C@H](COCc3ccc(COC[C@@H](NC(=O)[C@H]4N5C(=O)[C@@H](NC(=S)[C@H](C)NC)CCS[C@H]5CC4(C)C)c4ccccc4)cc3)c3ccccc3)N2C1=O` [compound 43, (4S,4′S,7S,7′S,9aS,9a′S)-N,N′-((1S,1′S)-((1,4-phenylenebis(methylene))bis(oxy))bis(1-phenylethane-2,1-diyl))bis(8,8-dimethyl-4-((S)-2-(methylamino)propanethioamido)-5-oxooctahydropyrrolo[2,1-b][1,3]thiazepine-7-carboxamide) dihydrochloride], the half-maximal effective concentration (EC50) is 43.4 nM.

For the molecule `CN[C@@H](C)C(=O)N[C@H]1CCS[C@H]2CC(C)(C)[C@@H](C(=O)N[C@H](C(=O)NCC#CC#CCNC(=O)[C@@H](NC(=O)[C@H]3N4C(=O)[C@@H](NC(=O)[C@H](C)NC)CCS[C@H]4CC3(C)C)c3ccccc3)c3ccccc3)N2C1=O` [compound 30, (4S,4′S,7S,7′S,9aS,9a′S)-N,N′-((1S,1′S)-(hexa-2,4-diyne-1,6-diylbis(azanediyl))bis(2-oxo-1-phenylethane-2,1-diyl))bis(8,8-dimethyl-4-((S)-2-(methylamino)propanamido)-5-oxooctahydropyrrolo[2,1-b][1,3]thiazepine-7-carboxamide) dihydrochloride], the concentration giving a half-maximal response (EC50) was 65.4 nM.

Regarding `CN[C@@H](C)C(=S)N[C@H]1CCS[C@H]2CC(C)(C)[C@@H](C(=O)N[C@H]3c4ccccc4C[C@H]3C(=O)NCc3ccc(CNC(=O)[C@@H]4Cc5ccccc5[C@@H]4NC(=O)[C@H]4N5C(=O)[C@@H](NC(=S)[C@H](C)NC)CCS[C@H]5CC4(C)C)cc3)N2C1=O` [compound 44, (4S,7S,9aS)-N-[(1R,2R)-2-({[4-({[(1R,2R)-1-[(4S,7S,9aS)-8,8-dimethyl-4-[(2S)-2-(methylamino)propanethioamido]-5-oxo-octahydropyrrolo[2,1-b][1,3]thiazepine-7-amido]-2,3-dihydro-1H-inden-2-yl]formamido}methyl)phenyl]methyl}carbamoyl)-2,3-dihydro-1H-inden-1-yl]-8,8-dimethyl-4-[(2S)-2-(methylamino)propanethioamido]-5-oxo-octahydropyrrolo[2,1-b][1,3]thiazepine-7-carboxamide], the 50% effective concentration (EC50) came out at 20.4 nM.

(Values after patent US11492361B2, “Compounds useful in HIV therapy” (GlaxoSmithKline Intellectual Property Development Limited, priority 2018, dated 2022).)
